Laboratory results reported in publication PMC11637378, “Optogenetic screening of MCT1 activity implicates a cluster of non-steroidal anti-inflammatory drugs (NSAIDs) as inhibitors of lactate transport” (PLOS ONE, 2024).
Where “and” joins values, the source holds several entries; their conditions need not be identical. Identical values can stand only once. Like-named read-outs stand apart in the source and are kept apart here.

Tests used:
[1] = tested on: parent strain (SAWy518)
[2] = cited from earlier work
[3] = tested on: MCT1; settings: cited from earlier work; for MCT1 inhibitor annotation: NOTES/Group column, ref not given
[4] = tested on: parent strain (SAWy518); assay: Off-target control in IC50 determination: growth of light-insensitive parent strain at each inhibitor concentration; assay type: cell-based, Saccharomyces cerevisiae; settings: at the dosages used in this study
[5] = tested on: parent strain (SAWy518); assay: microbe, parasite or virus in culture; design: species or system Saccharomyces cerevisiae SAWy518; Off-target growth counter-screen, OD600 as per cent of untreated wells, strain lacking MCT1; settings: 18.5 h; sheet Primary Screen - final;; off-target growth of parent strain, about 18 h
Protocol: Cells were grown for 18 hours prior to OD measurement. Fill represents manual compound grouping based on compound class or target. OD600 is reported in Tecan units. […] The drug library used in this study for the initial screen and rescreen was provided by the Small Molecule Screening Center at Princeton University, through a collaboration with Dr. Hahn Kim. […] Follow-up analysis (IC50 determinations) on library compounds was performed using compounds purchased from outside sources. […] Stocks were then diluted 100-fold into media containing 0.01 OD600 inoculation of yeast, to achieve the final concentrations listed. Where compounds were added manually (for example 10 μM AZD3965 addition) stock concentrations were diluted by a factor of 100-fold regardless of scale, resulting in a final concentration of 1% v/v DMSO which is well tolerated by yeast.

[6] = tested on: cancer cell growth; settings: cited from earlier work

Compound | OffScreen_percentage [1] | Offscreen_18hr [1] | Offscreen_24hr [1] | Offscreen_42hr [1] | Read_percentage [1] | blood-plasma concentration ([2]; 150–200 mg daily) | IC50 ([3]; read-out: previously reported inhibition value for MCT1 (IC50)) | off-target toxicity [4] | viability at 10 µM [5] | MCT1 inhibitor annotation ([3]; library annotation) | concentrations of in vitro anticancer activity [6] | blood-plasma concentration ([2]; 20 mg/day) | MCT1 inhibition (annotation) ([3]; library annotation) | Known MCT1 inhibitor ([3]; library annotation)
O=C(O)Cc1ccccc1Nc1c(Cl)cccc1Cl [Diclofenac, reference compound] | 100.855 percentage | 0.8139 | 0.8825 | 0.9387 | 100.855 percentage | 6.1 µM | 1400 nM |  |  |  |  |  |  | 
CC(C(=O)O)c1cccc(C(=O)c2ccccc2)c1 (stereo not shown) [Ketoprofen] |  |  |  |  |  |  |  | do not exhibit off-target toxicity |  |  |  |  |  | 
O=C(CCc1ccc(O)cc1)c1c(O)cc(O)cc1O [Phloretin] | 94.4238 percentage | 0.762 | 0.892 | 0.9541 | 94.4238 percentage |  |  |  | 94.4% | MCT1 inhibitor |  |  |  | 
CN1C(C(=O)Nc2ccccn2)=C(O)c2ccccc2S1(=O)=O [Piroxicam, reference compound] | 95.2292 percentage | 0.7685 and 0.7781 | 0.8625 and 0.86 | 0.9267 and 0.9178 | 95.2292 percentage |  |  |  |  |  | 25 to 30 µM | 16 to 20 µM |  | 
O=c1c(O)c(-c2ccc(O)c(O)c2)oc2cc(O)cc(O)c12 [Quercetin (Sophoretin)] |  | 0.7827 | 0.8834 | 0.9444 |  |  |  |  |  |  |  |  | PI3K, PKC, Src, Sirtuin inhibitor, MCT1 inhibitor - flavanoid | 
O=c1c(O)c(-c2ccc(O)c(O)c2)oc2cc(O)cc(O)c12 [Quercetin dihydrate] |  | 0.7753 | 0.8789 | 0.9377 |  |  |  |  |  |  |  |  | Known MCT1 inhibitor, PI3-K and PDE inhibitor (flavanoid) | 
O=c1c(O)c(-c2ccc(O)c(O)c2)oc2cc(O)cc(O)c12 [Quercetin, reference compound] | 96.0719 percentage | 0.7753 | 0.8789 | 0.9377 | 96.0719 percentage |  |  |  |  | Known MCT1 inhibitor, PI3-K and PDE inhibitor (flavanoid) |  |  |  | Known MCT1 inhibitor, PI3-K and PDE inhibitor (flavanoid)
CC1=C(CC(=O)O)c2cc(F)ccc2/C1=C\c1ccc([S+](C)[O-])cc1 (stereo not shown) [Sulindac, reference compound] | 103.073 percentage | 0.8318 | 0.9131 | 0.9739 | 103.073 |  |  | do not exhibit off-target toxicity |  |  |  |  |  | 
CC/C(=C(\c1ccccc1)c1ccc(OCCN(C)C)cc1)c1ccccc1.O=C(O)CC(O)(CC(=O)O)C(=O)O [Tamoxifen Citrate] | 96.6419 percentage | 0.7799 | 0.893 | 0.9507 | 96.6419 |  |  |  | 96.6% |  |  |  |  | 
NCCS(=O)(=O)O [Taurine] | 104.139 percentage | 0.8404 | 0.9173 | 0.9826 | 104.139 |  |  |  | 104% |  |  |  |  | 
CCOC(=O)[C@@H](N)Cc1ccc(-c2cc(O[C@H](c3ccc(Cl)cc3-n3ccc(C)n3)C(F)(F)F)nc(N)n2)cc1.O=C(O)CNC(=O)c1ccccc1 [Telotristat Etiprate] | 96.9393 percentage | 0.7823 | 0.9107 | 0.9681 | 96.9393 |  |  |  | 96.9% |  |  |  |  | 
N#CC(=C(\N)Sc1ccccc1N)/C(C#N)=C(/N)Sc1ccccc1N [U0126] | 91.0905 percentage | 0.7351 | 0.8786 | 0.95 | 91.0905 |  |  |  | 91.1% |  |  |  |  | 
COc1cc(C(=O)NS(=O)(=O)c2ccccc2C)ccc1Cc1cn(C)c2ccc(NC(=O)OC3CCCC3)cc12 [Zafirlukast] | 103.829 percentage | 0.8379 | 0.9188 | 0.9793 | 103.829 |  |  |  | 104% |  |  |  |  | 
COc1c(O)cc2oc3cc(O)c(CC=C(C)C)c(O)c3c(=O)c2c1CC=C(C)C [alpha-mangostin] | 89.9628 percentage | 0.726 | 0.8801 | 0.9296 | 89.9628 percentage |  |  |  | 90% |  |  |  |  | 
